Experimental findings from publication PMC7206119, “RIP1 inhibition blocks inflammatory diseases but not tumor growth or metastases” (Cell Death and Differentiation, 2019) are described below.

Some targets named below: BRSK2 (Homo sapiens, UniProt Q8IWQ3); CASK (Homo sapiens, UniProt O14936); DAPK2 (Homo sapiens, UniProt Q9UIK4); FER (Homo sapiens, UniProt P16591); FGFR3 (Homo sapiens, UniProt P22607); GRK1 (Homo sapiens, UniProt Q15835); MAP3K2 (Homo sapiens, UniProt Q9Y2U5); MARK4 (Homo sapiens, UniProt Q96L34); MYLK (Homo sapiens, UniProt Q15746); NEK1 (Homo sapiens, UniProt Q96PY6); PDPK1 (Homo sapiens, UniProt O15530); PIK3CA(Q546K) (Homo sapiens, UniProt P42336, Q546K); PKMYT1 (Homo sapiens, UniProt Q99640); PLK3 (Homo sapiens, UniProt Q9H4B4); PRKCE (Homo sapiens, UniProt Q02156); SNRK (Homo sapiens, UniProt Q9NRH2); WNK4 (Homo sapiens, UniProt Q96J92).

What all share (assay): biochemical
Common to all, as to design: DiscoverX kinase panel, active-site competition binding (KINOMEscan type), percent of control at one concentration
Conditions in all cases: competition binding, percent of control

For a further assay, the target named is T1, JNK1 (Homo sapiens, UniProt P45983).
T1 construct: gene MAPK8

The target of assay [1] is T2, RSK3(Kin.Dom.2-C-terminal) (Homo sapiens, UniProt Q15349).
T2 construct: gene RPS6KA2; Kin.Dom.2-C-terminal

Another assay addresses T3, YANK3 (Homo sapiens, UniProt Q86UX6).
T3 construct: gene STK32C

A further assay has as its target T4, p38-delta (Homo sapiens, UniProt O15264).
T4 construct: gene MAPK13

FGFR3, sequence (P22607 whole entry): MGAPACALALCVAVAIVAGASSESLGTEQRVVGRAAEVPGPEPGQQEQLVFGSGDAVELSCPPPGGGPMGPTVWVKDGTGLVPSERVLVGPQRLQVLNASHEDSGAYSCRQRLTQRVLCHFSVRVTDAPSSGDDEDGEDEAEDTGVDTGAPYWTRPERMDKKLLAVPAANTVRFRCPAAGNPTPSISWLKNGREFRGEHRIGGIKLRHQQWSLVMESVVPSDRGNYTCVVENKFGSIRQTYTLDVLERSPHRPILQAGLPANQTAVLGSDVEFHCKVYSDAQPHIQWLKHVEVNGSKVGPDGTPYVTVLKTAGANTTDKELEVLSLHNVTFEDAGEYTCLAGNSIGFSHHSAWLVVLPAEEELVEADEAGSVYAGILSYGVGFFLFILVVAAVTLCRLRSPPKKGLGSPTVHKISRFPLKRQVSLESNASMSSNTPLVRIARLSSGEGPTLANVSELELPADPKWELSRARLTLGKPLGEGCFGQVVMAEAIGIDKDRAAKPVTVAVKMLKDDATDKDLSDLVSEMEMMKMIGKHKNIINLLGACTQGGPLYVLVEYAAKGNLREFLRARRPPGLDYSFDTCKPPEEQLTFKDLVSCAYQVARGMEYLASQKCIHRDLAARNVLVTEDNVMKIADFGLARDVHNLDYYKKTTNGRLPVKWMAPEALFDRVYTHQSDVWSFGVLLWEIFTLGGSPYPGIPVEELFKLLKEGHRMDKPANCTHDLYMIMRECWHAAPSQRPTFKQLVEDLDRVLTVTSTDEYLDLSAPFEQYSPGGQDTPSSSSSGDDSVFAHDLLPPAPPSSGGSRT
CASK, sequence (O14936 whole entry): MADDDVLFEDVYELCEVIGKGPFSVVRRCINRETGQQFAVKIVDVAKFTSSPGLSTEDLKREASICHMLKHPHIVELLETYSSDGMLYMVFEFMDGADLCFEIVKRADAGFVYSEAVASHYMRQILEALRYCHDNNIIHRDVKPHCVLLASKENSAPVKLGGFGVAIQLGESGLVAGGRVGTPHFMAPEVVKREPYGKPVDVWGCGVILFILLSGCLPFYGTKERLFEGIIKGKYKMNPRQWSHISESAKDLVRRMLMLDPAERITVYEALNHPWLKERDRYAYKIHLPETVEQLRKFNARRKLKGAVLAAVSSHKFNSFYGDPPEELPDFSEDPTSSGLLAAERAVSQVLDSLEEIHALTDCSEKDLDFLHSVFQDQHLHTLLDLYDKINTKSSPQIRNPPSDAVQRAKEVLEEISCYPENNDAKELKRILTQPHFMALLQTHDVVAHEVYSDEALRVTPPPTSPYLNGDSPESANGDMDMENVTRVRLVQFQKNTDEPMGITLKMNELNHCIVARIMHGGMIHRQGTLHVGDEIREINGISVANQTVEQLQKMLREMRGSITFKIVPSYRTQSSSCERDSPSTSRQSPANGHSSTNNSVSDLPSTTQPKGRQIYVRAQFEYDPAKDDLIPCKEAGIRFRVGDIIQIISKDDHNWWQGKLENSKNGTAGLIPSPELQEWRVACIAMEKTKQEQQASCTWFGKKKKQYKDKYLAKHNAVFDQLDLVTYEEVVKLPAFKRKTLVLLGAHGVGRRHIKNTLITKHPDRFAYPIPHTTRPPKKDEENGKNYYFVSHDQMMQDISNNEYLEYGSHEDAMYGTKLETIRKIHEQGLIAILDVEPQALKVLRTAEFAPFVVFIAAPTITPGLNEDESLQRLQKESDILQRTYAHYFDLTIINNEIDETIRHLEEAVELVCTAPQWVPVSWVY
PDPK1, sequence (O15530 whole entry): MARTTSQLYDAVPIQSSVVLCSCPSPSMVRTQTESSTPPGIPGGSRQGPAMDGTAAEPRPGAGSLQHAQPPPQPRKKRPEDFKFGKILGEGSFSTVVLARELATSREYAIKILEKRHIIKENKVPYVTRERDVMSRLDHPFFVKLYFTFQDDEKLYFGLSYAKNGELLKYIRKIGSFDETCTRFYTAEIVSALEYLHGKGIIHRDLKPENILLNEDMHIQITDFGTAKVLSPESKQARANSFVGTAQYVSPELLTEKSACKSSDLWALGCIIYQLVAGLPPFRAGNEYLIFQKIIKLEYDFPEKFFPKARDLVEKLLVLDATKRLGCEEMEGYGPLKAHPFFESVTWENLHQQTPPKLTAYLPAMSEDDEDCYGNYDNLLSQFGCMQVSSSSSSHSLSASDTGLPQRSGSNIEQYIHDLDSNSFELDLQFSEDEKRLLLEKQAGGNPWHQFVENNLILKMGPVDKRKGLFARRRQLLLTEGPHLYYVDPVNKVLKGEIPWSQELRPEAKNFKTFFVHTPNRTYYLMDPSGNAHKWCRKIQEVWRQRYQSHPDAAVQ
WNK4, sequence (Q96J92 whole entry): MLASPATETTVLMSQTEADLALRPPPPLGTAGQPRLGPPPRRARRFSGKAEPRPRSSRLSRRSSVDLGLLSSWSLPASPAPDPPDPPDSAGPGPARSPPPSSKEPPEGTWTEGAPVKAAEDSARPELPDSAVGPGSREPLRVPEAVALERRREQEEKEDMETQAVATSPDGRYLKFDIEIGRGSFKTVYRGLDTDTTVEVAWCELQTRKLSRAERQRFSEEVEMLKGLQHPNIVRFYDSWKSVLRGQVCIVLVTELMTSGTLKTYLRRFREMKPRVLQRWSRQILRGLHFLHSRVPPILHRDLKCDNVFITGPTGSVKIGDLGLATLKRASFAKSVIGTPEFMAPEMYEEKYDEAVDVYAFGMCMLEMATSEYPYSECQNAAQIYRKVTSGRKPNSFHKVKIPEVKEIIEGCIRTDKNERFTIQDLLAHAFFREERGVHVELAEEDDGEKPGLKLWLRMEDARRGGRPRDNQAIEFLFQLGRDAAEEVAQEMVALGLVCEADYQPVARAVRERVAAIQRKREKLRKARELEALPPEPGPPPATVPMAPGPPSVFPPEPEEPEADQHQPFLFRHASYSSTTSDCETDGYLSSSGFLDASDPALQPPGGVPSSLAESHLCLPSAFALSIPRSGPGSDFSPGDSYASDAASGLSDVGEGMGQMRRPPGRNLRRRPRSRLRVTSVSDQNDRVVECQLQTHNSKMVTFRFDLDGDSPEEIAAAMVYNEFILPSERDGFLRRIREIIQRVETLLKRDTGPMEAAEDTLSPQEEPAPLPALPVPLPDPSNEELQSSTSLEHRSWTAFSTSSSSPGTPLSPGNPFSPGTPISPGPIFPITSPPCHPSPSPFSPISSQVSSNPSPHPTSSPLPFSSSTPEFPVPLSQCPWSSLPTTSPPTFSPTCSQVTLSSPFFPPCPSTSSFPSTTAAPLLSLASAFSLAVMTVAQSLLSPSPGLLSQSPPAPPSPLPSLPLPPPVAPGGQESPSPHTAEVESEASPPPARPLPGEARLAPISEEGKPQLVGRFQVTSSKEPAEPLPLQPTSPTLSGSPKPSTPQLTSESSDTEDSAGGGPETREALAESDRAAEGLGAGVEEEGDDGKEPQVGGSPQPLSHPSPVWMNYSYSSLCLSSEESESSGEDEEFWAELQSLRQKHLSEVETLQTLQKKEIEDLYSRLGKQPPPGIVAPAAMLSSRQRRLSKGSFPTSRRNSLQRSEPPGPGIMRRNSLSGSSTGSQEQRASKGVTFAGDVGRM
DAPK2, sequence (Q9UIK4 whole entry): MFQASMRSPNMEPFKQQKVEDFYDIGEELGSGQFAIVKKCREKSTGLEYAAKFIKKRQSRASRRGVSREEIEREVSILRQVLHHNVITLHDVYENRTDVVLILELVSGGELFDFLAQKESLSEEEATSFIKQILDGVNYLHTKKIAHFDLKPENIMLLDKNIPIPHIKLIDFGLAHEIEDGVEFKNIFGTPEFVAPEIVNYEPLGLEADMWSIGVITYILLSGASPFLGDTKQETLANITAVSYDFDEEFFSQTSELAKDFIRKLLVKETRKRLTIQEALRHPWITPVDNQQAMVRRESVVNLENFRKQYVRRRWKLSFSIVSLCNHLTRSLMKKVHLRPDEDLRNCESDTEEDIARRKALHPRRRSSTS
PLK3, sequence (Q9H4B4 whole entry): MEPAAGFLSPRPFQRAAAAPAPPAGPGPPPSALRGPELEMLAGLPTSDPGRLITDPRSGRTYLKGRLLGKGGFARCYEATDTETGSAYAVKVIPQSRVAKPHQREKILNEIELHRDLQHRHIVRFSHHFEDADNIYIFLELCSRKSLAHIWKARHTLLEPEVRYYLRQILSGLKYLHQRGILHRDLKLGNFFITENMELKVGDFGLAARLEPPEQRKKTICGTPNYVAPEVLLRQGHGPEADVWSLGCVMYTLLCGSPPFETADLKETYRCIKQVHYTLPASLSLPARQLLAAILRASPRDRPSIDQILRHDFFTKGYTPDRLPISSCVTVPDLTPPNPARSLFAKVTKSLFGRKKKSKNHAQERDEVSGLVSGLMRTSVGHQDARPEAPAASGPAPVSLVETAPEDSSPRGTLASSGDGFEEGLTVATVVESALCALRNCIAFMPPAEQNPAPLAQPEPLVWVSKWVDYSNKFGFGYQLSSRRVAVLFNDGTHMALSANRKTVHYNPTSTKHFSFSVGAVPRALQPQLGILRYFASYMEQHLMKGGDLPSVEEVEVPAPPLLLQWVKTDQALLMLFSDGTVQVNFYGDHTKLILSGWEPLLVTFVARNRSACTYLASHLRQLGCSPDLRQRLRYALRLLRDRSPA
T4 sequence (O15264 whole entry): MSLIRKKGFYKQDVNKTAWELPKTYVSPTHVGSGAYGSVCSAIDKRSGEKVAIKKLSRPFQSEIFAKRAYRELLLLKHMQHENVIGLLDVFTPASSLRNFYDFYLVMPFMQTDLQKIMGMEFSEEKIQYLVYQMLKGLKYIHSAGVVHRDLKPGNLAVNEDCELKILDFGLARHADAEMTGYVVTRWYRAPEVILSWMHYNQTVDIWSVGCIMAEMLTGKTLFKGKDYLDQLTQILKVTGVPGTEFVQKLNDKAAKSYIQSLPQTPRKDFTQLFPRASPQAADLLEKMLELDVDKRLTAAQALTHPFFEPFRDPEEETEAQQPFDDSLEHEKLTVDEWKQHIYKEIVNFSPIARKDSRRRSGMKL

Consider `COc1cc2c(cn1)N(C)C(=O)[C@@H](NC(=O)c1nc3n(n1)[C@H](c1ccccc1)CC3)CC2` [GNE684, (S)-N-((S)-7-methoxy-1-methyl-2-oxo-2,3,4,5-tetrahydro-1H-pyrido[3,4-b]azepin-3-yl)-5-phenyl-6,7-dihydro-5H-pyrrolo[1,2-b][1,2,4]triazole-2-carboxamide], for which the remaining binding at 10 µM came out at 89% on BRSK2; 72% on CASK; 74% on DAPK2; 90% at FER; 100% at FGFR3; 67% at GRK1. For the same molecule, the remaining binding at 10 µM at JNK1 was 97%; at MAP3K2 it was 76%; at MARK4 it was 60%; on MYLK, 99%; at NEK1, 100%; on PDPK1, 91%. For the same molecule, the remaining binding at 10 µM at PIK3CA(Q546K) was 49%; on PKMYT1 it was 99%; on PLK3, 89%; on PRKCE, 88%; in assay [1], 98%; at SNRK it was 93%. The figures for the remaining binding at 10 µM at WNK4, on YANK3 and at p38-delta were 100%, 93% and 92%, respectively.
